Experimental data from ChEMBL document CHEMBL4507327 (2021).

Tests used:
[1] = target: 5-hydroxytryptamine receptor 1E (Homo sapiens) (UniProt P28566); conditions: Compound concentration 10.0 uM
[2] = target: T1, 5-hydroxytryptamine receptor 3A (Homo sapiens) (UniProt P46098); conditions: Compound concentration 10.0 uM
T1 sequence (whole entry): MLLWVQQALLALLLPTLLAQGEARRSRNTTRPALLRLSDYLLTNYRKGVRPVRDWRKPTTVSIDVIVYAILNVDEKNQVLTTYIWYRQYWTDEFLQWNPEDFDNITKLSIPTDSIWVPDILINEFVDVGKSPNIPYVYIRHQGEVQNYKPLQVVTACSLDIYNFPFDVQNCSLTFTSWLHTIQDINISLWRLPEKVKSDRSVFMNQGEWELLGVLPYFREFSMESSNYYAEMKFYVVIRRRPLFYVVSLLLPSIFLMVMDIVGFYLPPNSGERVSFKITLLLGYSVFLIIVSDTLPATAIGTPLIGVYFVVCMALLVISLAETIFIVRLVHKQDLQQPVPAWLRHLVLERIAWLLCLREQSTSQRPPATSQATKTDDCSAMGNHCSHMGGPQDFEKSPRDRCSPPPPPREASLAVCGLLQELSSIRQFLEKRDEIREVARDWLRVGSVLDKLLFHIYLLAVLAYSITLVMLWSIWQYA

[3] = target: 5-hydroxytryptamine receptor 6 (Homo sapiens) (UniProt P50406); conditions: Compound concentration 10.0 uM
[4] = target: D(4) dopamine receptor (Homo sapiens) (UniProt P21917); conditions: Compound concentration 10.0 uM
[5] = target: Muscarinic acetylcholine receptor M4 (Homo sapiens) (UniProt P08173); conditions: Compound concentration 10.0 uM
Sequence of Muscarinic acetylcholine receptor M4 (Homo sapiens) (P08173 whole entry): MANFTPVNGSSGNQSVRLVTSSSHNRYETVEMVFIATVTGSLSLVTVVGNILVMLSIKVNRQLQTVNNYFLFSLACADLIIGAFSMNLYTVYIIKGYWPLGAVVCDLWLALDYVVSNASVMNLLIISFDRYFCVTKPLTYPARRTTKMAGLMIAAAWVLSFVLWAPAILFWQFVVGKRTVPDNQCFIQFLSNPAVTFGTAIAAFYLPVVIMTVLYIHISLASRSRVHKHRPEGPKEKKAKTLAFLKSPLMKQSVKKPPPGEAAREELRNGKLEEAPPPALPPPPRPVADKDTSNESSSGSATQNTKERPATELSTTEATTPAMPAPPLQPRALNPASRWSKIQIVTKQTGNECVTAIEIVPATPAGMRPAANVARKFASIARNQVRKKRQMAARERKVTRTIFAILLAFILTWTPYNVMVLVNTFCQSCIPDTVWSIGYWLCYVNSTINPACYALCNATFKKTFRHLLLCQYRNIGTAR

Rattus norvegicus = species on record: Rattus norvegicus; conditions: Compound concentration 10.0 uM
[6] = target: Beta-1 adrenergic receptor (Homo sapiens) (UniProt P08588); conditions: Compound concentration 10.0 uM
[7] = target: L-type calcium channel, benzothiazepine site (Cav1.2 alpha-1C) (Homo sapiens, UniProt Q13936); assay: Inhibition of Calcium Channel L-Type, Benzothiazepine at 10 µM in the Eurofins-Panlabs radioligand binding assay (Eurofins_assay_214510); parameters: ligand concentration 2 nM, non-specific ligand with concentration 10 µM Diltiazem, incubation time 3h, incubation temperature 4 °C; conditions: male, Wistar, rat, whole brain of rats, probe [3H] Diltiazem; compound concentration 10 uM; target entry is the homologue from another species
hERG (KCNH2) = hERG (KCNH2) (Homo sapiens, UniProt Q12809); assay: Inhibition of Potassium Channel hERG at 10 µM in the Eurofins-Panlabs radioligand binding assay (Eurofins_assay_265900); parameters: ligand concentration 1.5 nM, non-specific ligand with concentration Astemizole, incubation time 60 min, incubation temperature 25 °C; conditions: HEK-293 cells that express human recombinant hERG, probe [3H] Astemizole, compound concentration 10 uM
[8] = target: Inhibitor of nuclear factor kappa-B kinase subunit epsilon (Homo sapiens, UniProt Q14164); assay: IKKepsilon(IKBELGY1) Takeda global kinase panel
Activin receptor type-1B = Activin receptor type-1B (Homo sapiens, UniProt P36896); assay: ALK4(AC1BLGF1) Takeda global kinase panel
Sequence of Activin receptor type-1B (P36896 whole entry): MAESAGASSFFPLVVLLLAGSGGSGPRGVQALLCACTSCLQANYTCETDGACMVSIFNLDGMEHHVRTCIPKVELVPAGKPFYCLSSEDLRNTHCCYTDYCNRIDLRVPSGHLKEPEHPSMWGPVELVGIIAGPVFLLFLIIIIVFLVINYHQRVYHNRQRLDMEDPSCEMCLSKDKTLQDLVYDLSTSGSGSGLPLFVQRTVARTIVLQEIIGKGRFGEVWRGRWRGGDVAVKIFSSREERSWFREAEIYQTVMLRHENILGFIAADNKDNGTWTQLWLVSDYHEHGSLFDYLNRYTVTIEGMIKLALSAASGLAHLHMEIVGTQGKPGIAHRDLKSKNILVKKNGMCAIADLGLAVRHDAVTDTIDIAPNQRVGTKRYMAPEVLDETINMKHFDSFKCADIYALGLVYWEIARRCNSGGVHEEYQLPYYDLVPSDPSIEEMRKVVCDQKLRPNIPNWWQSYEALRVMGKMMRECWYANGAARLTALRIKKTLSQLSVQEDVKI

[9] = target: Calcium/calmodulin-dependent protein kinase type 1D (Homo sapiens, UniProt Q8IU85); assay: CaMK1delta(CA1DLGT5) Takeda global kinase panel
Sequence of Calcium/calmodulin-dependent protein kinase type 1D (Q8IU85 whole entry): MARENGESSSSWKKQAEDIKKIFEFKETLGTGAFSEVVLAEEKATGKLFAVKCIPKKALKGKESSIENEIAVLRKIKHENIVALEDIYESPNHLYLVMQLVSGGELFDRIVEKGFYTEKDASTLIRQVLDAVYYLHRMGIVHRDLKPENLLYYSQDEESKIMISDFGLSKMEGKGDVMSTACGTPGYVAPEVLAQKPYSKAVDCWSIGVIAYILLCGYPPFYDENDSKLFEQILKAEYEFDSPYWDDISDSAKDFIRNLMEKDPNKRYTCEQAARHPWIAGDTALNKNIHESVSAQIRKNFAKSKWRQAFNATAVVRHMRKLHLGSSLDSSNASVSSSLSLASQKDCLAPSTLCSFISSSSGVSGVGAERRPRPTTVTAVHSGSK

[10] = target: Proto-oncogene tyrosine-protein kinase receptor Ret (Homo sapiens, UniProt P07949); assay: Ret(RET1LGF1) Takeda global kinase panel
Sequence of Proto-oncogene tyrosine-protein kinase receptor Ret (P07949 whole entry): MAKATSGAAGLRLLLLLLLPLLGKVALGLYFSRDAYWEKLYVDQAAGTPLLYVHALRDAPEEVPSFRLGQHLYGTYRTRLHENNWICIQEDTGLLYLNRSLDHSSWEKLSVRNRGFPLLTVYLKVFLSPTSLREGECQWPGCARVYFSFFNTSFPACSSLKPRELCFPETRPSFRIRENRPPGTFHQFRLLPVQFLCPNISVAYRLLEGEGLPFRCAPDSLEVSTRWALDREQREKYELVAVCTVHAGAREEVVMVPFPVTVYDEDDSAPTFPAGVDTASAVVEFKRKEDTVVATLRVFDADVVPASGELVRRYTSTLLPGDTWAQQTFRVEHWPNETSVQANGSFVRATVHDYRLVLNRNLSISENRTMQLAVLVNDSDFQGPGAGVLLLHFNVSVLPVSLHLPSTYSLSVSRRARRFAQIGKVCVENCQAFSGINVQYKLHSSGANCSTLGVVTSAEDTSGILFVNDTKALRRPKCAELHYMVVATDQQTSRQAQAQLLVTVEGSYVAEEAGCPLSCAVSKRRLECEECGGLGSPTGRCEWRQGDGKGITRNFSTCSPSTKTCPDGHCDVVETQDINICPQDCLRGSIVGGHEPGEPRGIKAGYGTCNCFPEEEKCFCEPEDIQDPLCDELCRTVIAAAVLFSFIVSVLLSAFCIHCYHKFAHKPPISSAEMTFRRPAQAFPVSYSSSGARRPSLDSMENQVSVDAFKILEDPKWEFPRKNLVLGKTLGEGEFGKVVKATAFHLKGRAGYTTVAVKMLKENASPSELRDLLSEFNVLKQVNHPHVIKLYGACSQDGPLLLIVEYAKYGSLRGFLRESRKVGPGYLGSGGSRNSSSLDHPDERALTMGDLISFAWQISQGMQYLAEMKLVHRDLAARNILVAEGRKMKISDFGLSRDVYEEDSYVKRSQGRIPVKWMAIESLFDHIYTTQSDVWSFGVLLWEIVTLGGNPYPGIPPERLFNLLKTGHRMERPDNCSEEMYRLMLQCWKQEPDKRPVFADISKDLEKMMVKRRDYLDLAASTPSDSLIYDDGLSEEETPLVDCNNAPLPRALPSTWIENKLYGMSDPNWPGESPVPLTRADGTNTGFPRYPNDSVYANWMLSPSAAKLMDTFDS

[11] = target: Serine/threonine-protein kinase 38 (Homo sapiens, UniProt Q15208); assay: NDR1(ST38LGF1) Takeda global kinase panel
Sequence of Serine/threonine-protein kinase 38 (Q15208 whole entry): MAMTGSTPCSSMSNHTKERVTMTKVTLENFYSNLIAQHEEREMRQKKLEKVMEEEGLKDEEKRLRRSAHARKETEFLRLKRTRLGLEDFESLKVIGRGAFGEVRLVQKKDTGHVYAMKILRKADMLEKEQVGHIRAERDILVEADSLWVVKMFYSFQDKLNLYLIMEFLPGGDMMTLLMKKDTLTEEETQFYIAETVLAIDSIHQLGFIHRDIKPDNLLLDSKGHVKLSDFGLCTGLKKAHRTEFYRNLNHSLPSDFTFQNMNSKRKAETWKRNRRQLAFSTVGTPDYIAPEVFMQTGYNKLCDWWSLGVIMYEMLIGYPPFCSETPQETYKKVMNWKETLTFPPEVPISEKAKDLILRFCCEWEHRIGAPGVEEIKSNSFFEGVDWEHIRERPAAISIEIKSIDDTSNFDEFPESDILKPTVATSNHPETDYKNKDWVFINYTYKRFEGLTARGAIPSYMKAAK

Angiopoietin-1 receptor = Angiopoietin-1 receptor (Homo sapiens, UniProt Q02763); assay: TIE2(TEK1LGF1) Takeda global kinase panel
Sequence of Angiopoietin-1 receptor (Q02763 whole entry): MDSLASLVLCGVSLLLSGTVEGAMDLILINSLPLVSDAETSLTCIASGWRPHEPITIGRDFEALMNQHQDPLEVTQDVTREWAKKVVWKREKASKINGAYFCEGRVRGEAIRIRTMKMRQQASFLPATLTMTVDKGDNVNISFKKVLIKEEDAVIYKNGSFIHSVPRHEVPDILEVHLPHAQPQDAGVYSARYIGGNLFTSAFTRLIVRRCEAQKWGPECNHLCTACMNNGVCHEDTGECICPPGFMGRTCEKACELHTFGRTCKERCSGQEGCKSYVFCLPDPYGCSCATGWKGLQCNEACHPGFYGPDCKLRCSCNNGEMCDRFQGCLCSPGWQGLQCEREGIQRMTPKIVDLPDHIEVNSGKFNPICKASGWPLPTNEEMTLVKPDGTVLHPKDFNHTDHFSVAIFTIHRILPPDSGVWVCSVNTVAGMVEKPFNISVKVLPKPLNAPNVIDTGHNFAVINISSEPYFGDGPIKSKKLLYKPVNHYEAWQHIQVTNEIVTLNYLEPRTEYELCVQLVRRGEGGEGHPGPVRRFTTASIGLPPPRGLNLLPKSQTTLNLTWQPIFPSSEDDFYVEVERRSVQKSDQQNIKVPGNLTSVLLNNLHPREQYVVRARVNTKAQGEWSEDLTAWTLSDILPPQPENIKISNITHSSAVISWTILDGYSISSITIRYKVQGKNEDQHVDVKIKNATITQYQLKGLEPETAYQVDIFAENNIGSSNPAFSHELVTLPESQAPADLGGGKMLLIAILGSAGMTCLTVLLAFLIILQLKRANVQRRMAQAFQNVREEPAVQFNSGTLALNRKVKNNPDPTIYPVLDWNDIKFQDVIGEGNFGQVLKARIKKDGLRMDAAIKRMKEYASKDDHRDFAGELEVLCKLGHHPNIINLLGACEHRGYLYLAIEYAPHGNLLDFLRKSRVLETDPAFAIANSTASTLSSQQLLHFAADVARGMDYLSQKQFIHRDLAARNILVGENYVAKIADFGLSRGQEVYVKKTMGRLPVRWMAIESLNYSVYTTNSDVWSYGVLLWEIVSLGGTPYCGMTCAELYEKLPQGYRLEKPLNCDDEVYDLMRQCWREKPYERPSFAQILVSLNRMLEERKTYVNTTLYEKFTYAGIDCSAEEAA

Tribbles homolog 1 = Tribbles homolog 1 (Homo sapiens, UniProt Q96RU8); assay: Trb1(TRI1PARP) Takeda global kinase panel
[12] = target: Tyrosine-protein kinase receptor TYRO3 (Homo sapiens, UniProt Q06418); assay: Tyro3 [Sky(TYR3LGY1)] Takeda global kinase panel
Sequence of Tyrosine-protein kinase receptor TYRO3 (Q06418 whole entry): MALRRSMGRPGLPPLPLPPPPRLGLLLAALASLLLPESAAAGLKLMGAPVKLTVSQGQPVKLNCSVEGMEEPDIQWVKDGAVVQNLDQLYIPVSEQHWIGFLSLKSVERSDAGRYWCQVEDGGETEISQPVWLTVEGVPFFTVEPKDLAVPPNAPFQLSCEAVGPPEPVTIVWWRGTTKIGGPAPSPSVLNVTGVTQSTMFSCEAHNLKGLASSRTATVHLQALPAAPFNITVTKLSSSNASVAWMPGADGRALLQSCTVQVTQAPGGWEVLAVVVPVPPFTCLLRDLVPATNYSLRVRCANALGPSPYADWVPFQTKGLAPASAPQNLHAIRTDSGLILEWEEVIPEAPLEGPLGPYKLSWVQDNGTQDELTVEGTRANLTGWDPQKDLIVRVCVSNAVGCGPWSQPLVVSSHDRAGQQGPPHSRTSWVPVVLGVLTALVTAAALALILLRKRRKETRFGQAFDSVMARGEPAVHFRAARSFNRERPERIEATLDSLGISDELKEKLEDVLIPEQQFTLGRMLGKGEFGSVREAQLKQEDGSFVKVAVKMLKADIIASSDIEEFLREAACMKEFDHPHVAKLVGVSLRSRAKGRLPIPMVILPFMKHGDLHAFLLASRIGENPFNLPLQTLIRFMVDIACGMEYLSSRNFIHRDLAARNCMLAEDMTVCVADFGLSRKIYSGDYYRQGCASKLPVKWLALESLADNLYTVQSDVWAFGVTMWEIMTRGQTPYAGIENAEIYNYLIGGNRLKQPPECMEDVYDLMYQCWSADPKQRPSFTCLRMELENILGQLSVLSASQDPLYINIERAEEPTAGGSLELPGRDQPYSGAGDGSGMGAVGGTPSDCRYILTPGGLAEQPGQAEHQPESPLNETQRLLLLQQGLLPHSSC

[13] = target: Bromodomain-containing protein 2 (Homo sapiens, UniProt P25440); assay: BRD2(BRD2LHRC) Takeda global kinase panel

Row | IC50 [8] [µM] | IC50 (Activin receptor type-1B) [µM] | IC50 [9] [µM] | IC50 [10] [µM] | IC50 [11] [µM] | IC50 (Angiopoietin-1 receptor) [µM] | IC50 (Tribbles homolog 1) [µM] | IC50 [12] [µM] | IC50 [13] [µM] | SMILES | inhibition [1] [%] | inhibition [2] [%] | inhibition [3] [%] | inhibition [4] [%] | inhibition [5] [%] | inhibition (Rattus norvegicus) [%] | inhibition [6] [%] | inhibition at 3 h, 10 µM [7] | inhibition at 60 min, 10 µM (hERG (KCNH2))
1 |  |  |  |  |  |  |  |  |  | CN1C(=O)[C@@H](N2CCc3cn(Cc4ccccc4)nc3C2=O)COc2ccccc21 [TP-030-1] | -1.55 | 40.8 | -3.95 | 17.4 | 8.56 | 68.7 | -8 |  | 
2 | 1 | 1 | 1 | 1 | 1 | 1 | 1 | 1 | 1 | CN1C(=O)[C@@H](N2CCc3cn(CC4CCS(=O)(=O)CC4)nc3C2=O)COc2ccccc21 [TP-030n] |  |  |  |  |  |  |  | 2% (not active) | 11% (not active)
